Measured values from article PMC6127852 (Journal of Enzyme Inhibition and Medicinal Chemistry, 2018).

Experiments:
calf thymus ctDNA = test: UV–Vis titration with ctDNA (Scatchard); type: binding; settings: for Hypochromic effect H/%, ctDNA: UV–Vis titration, calculated by Scatchard equation; for Hypochromic effect H/%, ctDNA / log Ks, ctDNA: PBS, pH 7; for log Ks, ctDNA: binding constant, Scatchard
Procedure: (§1) Polynucleotides were purchased as follows: polyG–polyC, polyA–polyU (Sigma-Aldrich, St. Louis, MO), calf thymus ctDNA (Aldrich). Polynucleotides were dissolved in PBS buffer, I = 0.05 mol dm^−3, pH 7.0. The calf thymus ctDNA was additionally sonicated and filtered through a […] filter. The polynucleotide concentration was spectroscopically determined as the concentration of nucleobases.
(§2) All UV–Vis absorbance measurements were conducted on a Perkin Elmer Lambda 25 spectrophotometer (Perkin Elmer, Waltham, MA). A quartz cell with a 1 cm path length was used for all absorbance studies. Compound stock solutions were 1 mM. The DNA/RNA at increasing ratios was then titrated into the compound buffer solution (1.48 × 10^−5 mol dm^−3) and the corresponding absorption spectra were recorded under the same conditions. All data were graphed and analysed using Origin software version 9.0 (OriginLab Corporation, Northampton, MA). The stability constants (Ks) and [bound compound]/[polynucleotide phosphate] ratios (n) were calculated according to the Scatchard Equation[63] ^, [64]. Values for Ks and n given in Table 1 all have satisfying correlation coefficients (0.99).
(§3) The binding constants logKs and the density of the binding sites n were calculated using Scatchard plot analysis. In addition, the binding constants Ks for compounds 8b and 8e were calculated only for titration data taken at the r ≥ 0.1, because below that ratio changes in absorption maxima were too small for accurate calculation (ΔA ≤ 0.04) (Table 1). The binding constants Ks and ratios n obtained by processing UV–Vis titration data using the Scatchard equation are summarised in Table 1.

polyA-polyU [1] = test: UV–Vis titration with polyA-polyU (Scatchard); type: binding; settings: PBS, pH 7; for Hypochromic effect H/%, polyA-polyU: UV–Vis titration, calculated by Scatchard equation; for log Ks, polyA-polyU: binding constant, Scatchard
Procedure: as §1, §2, §3

polyC-polyG = test: UV–Vis titration with polyC-polyG (Scatchard); type: binding; settings: PBS, pH 7; for Hypochromic effect H/%, polyC-polyG: UV–Vis titration, calculated by Scatchard equation; for log Ks, polyC-polyG: binding constant, Scatchard
Procedure: as §1, §2, §3

ctDNA = test: Thermal melting (ΔTm) of ctDNA; type: binding, calf; settings: PBS, pH 7; for ΔTm, ctDNA, r = 0.3: r = [compound]/[polynucleotide] 0.3, error ±0.5 °C
Procedure: (§4) T m experiments were conducted with a Perkin Elmer Lambda 25 spectrophotometer in 1 cm quartz cuvettes. The absorbance of the DNA/RNA-compound complex was monitored at 260 nm as a function of temperature. The absorbance of the ligands was subtracted from every curve, and the absorbance scale was normalised. The ΔT m values were calculated by subtracting T m of the free nucleic acid from T m of the complex. Every reported ΔT m value was the average of at least two measurements. The error of ΔT m is ±0.5 °C. All data were graphed and analysed using Origin software version 9.0.
(§5) Denaturation experiments were carried out at different amounts of the compounds (r = 0.1, 0.3, 0.5, and 0.7 eq; r = [compound]/[polynucleotide]) with ctDNA and polyA-polyU.

polyA-polyU [2] = test: Thermal melting (ΔTm) of polyA-polyU; type: binding; settings: for ΔTm, polyA-polyU, r = 0.1: PBS, pH 7; for ΔTm, polyA-polyU, r = 0.3 / ΔTm, polyA-polyU, r = 0.5: first melting midpoint
Procedure: as §4, §5

S. aureus MRSA = test: Broth microdilution MIC, MRSA clinical strain; type: cell-based; settings: Staphylococcus aureus, antibiotic-resistant clinical strain
Procedure: (§6) The compounds were evaluated for their in vitro anti-bacterial activity against Gram-positive bacteria: S. aureus (ATCC 25923), MRSA, methicillin-sensitive S. aureus (MSSA), E. faecalis, vancomycin-resistant E. faecium (VREF), and Gram-negative bacteria: E. coli (ATCC 25925), P. aeruginosa (ATCC 27853), A. baumannii (ATCC 19606) and ESBL-producing K. pneumoniae (ATCC 27736). Standard broth microdilution method as recommended in guidelines of Clinical and Laboratory Standards Institute[61] ^, [65] ^, [66] was applied and the minimum inhibitory concentration (MIC) of compounds was tested. In short, testing was performed in U-bottomed 96-well sterile plastic microdilution trays (Falcon 3077, Becton Dickinson Labware, Franklin Lakes, NJ) in cation (Ca^2+ and Mg^2+) adjusted Mueller–Hinton broth medium (Becton Dickinson and Co., Cockeysville, MD). All testings were performed in triplicate.

S. aureus MSSA = test: Broth microdilution MIC, MSSA clinical strain; type: cell-based; settings: Staphylococcus aureus
Procedure: as §6

E. faecium VRE = test: Broth microdilution MIC, VRE clinical strain; type: cell-based; settings: Enterococcus faecium
Procedure: as §6

S. aureus ATCC 25923 = test: Broth microdilution MIC, S. aureus ATCC 25923; type: cell-based; settings: Staphylococcus aureus, ATCC25923; Table S2
Procedure: as §6
(§7) The in vitro anti-bacterial activity of 5-amidinobenzimidazoles 7a–7e, 8a–8e, and 9a–9e was tested against Gram-positive bacteria including S. aureus (ATCC 25923), Enterococcus faecalis (ATCC 29212), and Gram-negative bacteria including E. coli (ATCC 25925), K. pneumoniae (ATCC 700803), P. aeruginosa (ATCC 27853), and Acinetobacter baumannii (ATCC 19606).

E. faecalis ATCC 29212 = test: Broth microdilution MIC, E. faecalis ATCC 29212; type: cell-based; settings: Enterococcus faecalis, ATCC29212; Table S2
Procedure: as §6, §7

E. coli ATCC 25925 = test: Broth microdilution MIC, E. coli ATCC 25925; type: cell-based; settings: Escherichia coli, ATCC25925; Table S2
Procedure: as §6, §7

K. pneumonia ATCC 700803 = test: Broth microdilution MIC, K. pneumoniae ATCC 700803; type: cell-based; settings: Klebsiella pneumoniae, ATCC700803; Table S2
Procedure: as §6, §7

P. aeruginosa ATCC 27853 = test: Broth microdilution MIC, P. aeruginosa ATCC 27853; type: cell-based; settings: Pseudomonas aeruginosa, ATCC27853; Table S2
Procedure: as §6, §7

A. baumannii ATCC 19606 = test: Broth microdilution MIC, A. baumannii ATCC 19606; type: cell-based; settings: Acinetobacter baumannii, ATCC19606; Table S2
Procedure: as §6, §7

[3] = test system: bloodstream form T. brucei (strain 221); test: Anti-trypanosomal screening, resazurin; type: cell-based; settings: Trypanosoma brucei, mean of triplicate ± SEM
Procedure: Bloodstream form T. brucei (strain 221) were cultured in modified Iscove’s medium, as outlined[67] and trypanocidal assays were performed using 96-well microtitre plates. […] Resazurin was added after 48 h, the plates incubated for a further 16 h, and then read in a Spectramax plate reader (Molecular Devices Corporation, San Jose, CA). The data were analysed using GraphPad Prism (GraphPad, La Jolla, CA). Each drug concentration was tested in triplicate.

[4] = test system: polyA-polyU (RNA, polymer) A/U; test: UV-Vis titration, Scatchard; settings: PBS, I = 0.05 M (Table 1 says I = 0.015 M), cations not specified, I = 0.015 M (Methods: 0.05 M), pH 7, per base
[5] = test system: polyG-polyC (polyC-polyG) (RNA, polymer) G/C; test: UV-Vis titration, Scatchard; settings: PBS
[6] = test system: polyA-polyU (RNA, polymer) A/U; test: UV melting at 260 nm; settings: PBS, I = 0.05 M, cations not specified, pH 7, r = 0.3 [compound]/[polynucleotide], error ±0.5, per base

CC(C)NC(=N)c1ccc2[nH]c(-c3ccc(OCc4cn(-c5ccccc5Cl)nn4)cc3)nc2c1.Cl.Cl [Compound 8c, N-isopropyl-2–(4-((1–(2-chlorophenyl)-1H-1,2,3-triazol-4-yl)methoxy)phenyl)-1H-benz[d]imidazole-5-carboximidamide dihydrochloride]
Hypochromic effect H/%, ctDNA (calf thymus ctDNA): 33.8%
log Ks, ctDNA (calf thymus ctDNA): 5.64
Hypochromic effect H/%, polyA-polyU (polyA-polyU [1]): 50.4%
log Ks, polyA-polyU (polyA-polyU [1]): 6.00
Hypochromic effect H/%, polyC-polyG (polyC-polyG): 5.31%
log Ks, polyC-polyG (polyC-polyG): 6.43
ΔTm, ctDNA, r = 0.5 (ctDNA): 3.89 °C
ΔTm, ctDNA, r = 0.7 (ctDNA): 4.39 °C
ΔTm, ctDNA, r = 0.3 (ctDNA): 3.40 °C
ΔTm, polyA-polyU, r = 0.1 (polyA-polyU [2]): 0.76 °C
ΔTm, polyA-polyU, r = 0.3 (polyA-polyU [2]): 0.58 °C
ΔTm, polyA-polyU, r = 0.5 (polyA-polyU [2]): 1.12 °C
MIC (S. aureus MRSA): 8 µg/mL
MIC (S. aureus MSSA): 16 µg/mL
MIC (E. faecium VRE): 32 µg/mL
MIC (S. aureus ATCC 25923): 32 µg/mL
MIC (E. faecalis ATCC 29212): 64 µg/mL
MIC (E. coli ATCC 25925): 256 µg/mL
MIC (K. pneumonia ATCC 700803): > 256 µg/mL
MIC (P. aeruginosa ATCC 27853): > 256 µg/mL
MIC (A. baumannii ATCC 19606): > 256 µg/mL
IC50 [3]: > 15 µM
melting point: 210 to 213 °C
log Ks [4]: 6.00
log Ks ([5]; I = 0.05 M (Table 1 says I = 0.015 M), cations not specified, I = 0.015 M (Methods: 0.05 M), pH 7, per base): 6.43

Cl.Cl.N=C(N)c1ccc2[nH]c(-c3ccc(OCc4cn(-c5ccccc5Cl)nn4)cc3)nc2c1 [Compound 7c, 2–(4-((1–(2-Chlorophenyl)-1H-1,2,3-triazol-4-yl)methoxy)phenyl)-1H-benz[d]imidazole-5-carboximidamide dihydrochloride]
Hypochromic effect H/%, ctDNA (calf thymus ctDNA): 36.3%
log Ks, ctDNA (calf thymus ctDNA): 6.24
Hypochromic effect H/%, polyA-polyU (polyA-polyU [1]): 38.9%
log Ks, polyA-polyU (polyA-polyU [1]): 5.21
ΔTm, ctDNA, r = 0.5 (ctDNA): 3.20 °C
ΔTm, ctDNA, r = 0.7 (ctDNA): 3.77 °C
ΔTm, ctDNA, r = 0.3 (ctDNA): 2.35 °C
ΔTm, polyA-polyU, r = 0.1 (polyA-polyU [2]): 0.20 °C
ΔTm, polyA-polyU, r = 0.3 (polyA-polyU [2]): 2.72 °C
MIC (S. aureus MRSA): 16 µg/mL
MIC (S. aureus MSSA): 32 µg/mL
MIC (E. faecium VRE): 256 µg/mL
MIC (S. aureus ATCC 25923): 64 µg/mL
MIC (E. faecalis ATCC 29212): 64 µg/mL
MIC (E. coli ATCC 25925): 256 µg/mL
MIC (K. pneumonia ATCC 700803): > 256 µg/mL
MIC (P. aeruginosa ATCC 27853): > 256 µg/mL
MIC (A. baumannii ATCC 19606): > 256 µg/mL
IC50 [3]: > 15 µM
melting point: 176 to 177 °C
ΔTm [6]: 2.72 °C
log Ks [4]: 5.21
binding ([5]; pH 7, changes too small for accurate calculation, compound 14.8 µM): weak

CC(C)NC(=N)c1ccc2[nH]c(-c3ccc(OCc4cn(CSc5ccccc5)nn4)cc3)nc2c1.Cl.Cl [Compound 8e, N-isopropyl-2–(4-((1-(phenylthiomethyl)-1H-1,2,3-triazol-4-yl)methoxy)phenyl)-1H-benz[d]imidazole-5-carboximidamide dihydrochloride]
Hypochromic effect H/%, ctDNA (calf thymus ctDNA): 44.2%
log Ks, ctDNA (range r ≥ 0.1) (calf thymus ctDNA; footnote f: mixed binding mode, calculated in range r ≥ 0.1): 6.39
Hypochromic effect H/%, polyA-polyU (polyA-polyU [1]): 47.2%
log Ks, polyA-polyU (polyA-polyU [1]): 5.96
Hypochromic effect H/%, polyC-polyG (polyC-polyG): 5.96%
log Ks, polyC-polyG (polyC-polyG): 7.20
ΔTm, ctDNA, r = 0.5 (ctDNA): 1.72 °C
ΔTm, ctDNA, r = 0.7 (ctDNA): 1.71 °C
ΔTm, ctDNA, r = 0.3 (ctDNA): 2.22 °C
ΔTm, polyA-polyU, r = 0.1 (polyA-polyU [2]): 0.52 °C
ΔTm, polyA-polyU, r = 0.3 (polyA-polyU [2]): 0.23 °C
ΔTm, polyA-polyU, r = 0.5 (polyA-polyU [2]): 0.26 °C
MIC (S. aureus MRSA): 8 µg/mL
MIC (S. aureus MSSA): 64 µg/mL
MIC (E. faecium VRE): 64 µg/mL
MIC (S. aureus ATCC 25923): 64 µg/mL
MIC (E. faecalis ATCC 29212): 256 µg/mL
MIC (E. coli ATCC 25925): 256 µg/mL
MIC (K. pneumonia ATCC 700803): > 256 µg/mL
MIC (P. aeruginosa ATCC 27853): > 256 µg/mL
MIC (A. baumannii ATCC 19606): > 256 µg/mL
IC50 [3]: 13.5 ± 0.8 µM
IC90 [3]: 22.5 ± 0.3 µM
melting point: 152 to 154 °C
